The test system of one assay is PD-L1 antibody. Kind of assay: Peptide antibody dissociation ELISA (PD-L1 antibody). In kind it is binding. The conditions noted are these: for pH 5.4: pH 7.2 EC 50 ratio: pH 5.4 vs pH 7.2; for pH 6.0: pH 7.2 EC 50 ratio: pH 6.0 vs pH 7.2. The protocol:
(§1) To begin, peptides were immobilized on neutravidin coated and blocked wells. […] After binding at 4 degrees the plates were washed extensively as before. Next the peptides were incubated with either neutral or acidic pH buffers for approximately 30 minutes and then washed again. The specifically peptide bound antibodies were detected by either anti-mouse Fc or anti-mouse kappa chain HRP conjugated antibodies using standard TMB-based chromogenic ELISA procedures. The effects of pH upon affinity were determined by standard EC50 analysis of each of the distinct pH dilution series binding curves and comparison of their respective EC50 values.
(In an ELISA, binding on a coated surface is turned into a signal by an enzyme label.)

For assay [1], the system named is anti-mouse CTLA-4 antibody (clone 9D9). Kind of assay: Peptide antibody dissociation ELISA (CTLA-4 antibody). The conditions noted are these: for pH responsiveness: FIG. 11A-11C legend, unoptimized peptide candidates. The assay is classed as binding. The protocol: as §1
The mark [2] stands for this setting: pH 5.4, read-out: EC50 [M] pH 5.4.
[3] abbreviates: pH 6.0, read-out: EC50 [M] pH 6.0.
[4] abbreviates: pH 7.2, read-out: EC50 [M] pH 7.2.

Where two headings read alike, the source gives them in different places. Bridge positions count the residues as written; N and C are the ends. Peptide text beside a SMILES is read from it.

With `CC[C@H](C)[C@H](NC(=O)[C@H](Cc1c[nH]cn1)NC(=O)[C@H](Cc1ccc(O)cc1)NC(=O)[C@@H](NC(=O)[C@H](CO)NC(=O)[C@@H]1CCCN1C(=O)[C@H](Cc1ccc(O)cc1)NC(=O)[C@H](Cc1ccccc1)NC(=O)[C@H](CC(C)C)NC(=O)[C@@H](N)CCC(N)=O)[C@@H](C)O)C(=O)N[C@H](C(=O)N[C@@H](CC(=O)O)C(=O)O)[C@@H](C)CC` [Peptide 20] (H-QLFYPSTYHIID-OH), the EC50 (commonly the concentration needed to bring the measured effect to its halfway point) with PD-L1 antibody (setting [2]) was 8.4e-10 M; with PD-L1 antibody (setting [3]) it was 2.1e-10 M; in the assay with PD-L1 antibody (setting [4]), 1.3e-10 M. Further, in the assay with PD-L1 antibody, the “pH 5.4: pH 7.2 EC 50 ratio” value was found to be 6.7. Also, the “pH 6.0: pH 7.2 EC 50 ratio” value in the assay with PD-L1 antibody came to 1.7.

Consider `CSCC[C@H](NC(=O)CNC(=O)CN)C(=O)N[C@H]1CSSC[C@@H](C(=O)N[C@@H](CCC(N)=O)C(=O)O)NC(=O)[C@H](Cc2c[nH]c3ccccc23)NC(=O)[C@H](CC(N)=O)NC(=O)[C@H](CC(C)C)NC(=O)[C@H](CC(N)=O)NC(=O)[C@H](CO)NC(=O)[C@H](Cc2ccc(O)cc2)NC(=O)[C@H](Cc2ccccc2)NC(=O)[C@H](CC(C)C)NC(=O)[C@H](CCC(=O)O)NC(=O)[C@H](Cc2c[nH]cn2)NC1=O` [Peptide 22] (H-GGMCHELFYSNLNWCQ-OH; disulfide 4-15), for which the EC50 with PD-L1 antibody (setting [2]) was determined as 3.5e-10 M; in the assay with PD-L1 antibody (setting [3]) it was 7e-11 M; in the assay on PD-L1 antibody (setting [4]), 4.5e-11 M. For the same compound, the “pH 5.4: pH 7.2 EC 50 ratio” value in the assay on PD-L1 antibody came to 7.8. The “pH 6.0: pH 7.2 EC 50 ratio” value in the assay with PD-L1 antibody worked out at 1.5.

As for `CSCC[C@@H]1NC(=O)[C@H](CC(=O)O)NC(=O)[C@H](C(C)C)NC(=O)[C@@H](NC(=O)[C@H](Cc2c[nH]cn2)NC(=O)CNC(=O)CN)CSSC[C@@H](C(=O)N[C@@H](CCC(N)=O)C(=O)O)NC(=O)[C@H]([C@@H](C)O)NC(=O)[C@H](CCC(N)=O)NC(=O)[C@H](CCC(N)=O)NC(=O)[C@H](Cc2ccc(O)cc2)NC(=O)[C@H](Cc2ccccc2)NC(=O)[C@H](CC(=O)O)NC(=O)[C@H](C(C)C)NC1=O` [Peptide 23] (H-GGHCVDMVDFYQQTCQ-OH; disulfide 4-15), the “EC50 [M] pH 7.2” value in assay [1] (pH 7.2) is listed as “Inactive”. Further, the EC50 with PD-L1 antibody (setting [2]) amounted to 3.9e-09 M; in the assay with PD-L1 antibody (setting [3]) it was 1.3e-09 M; with PD-L1 antibody (setting [4]), 3e-10 M. For the same compound, the “pH 5.4: pH 7.2 EC 50 ratio” value with PD-L1 antibody is given as 12.9. In addition, the “pH 6.0: pH 7.2 EC 50 ratio” value with PD-L1 antibody came to 4.3.

Consider `CC(C)C[C@@H]1NC(=O)CNC(=O)[C@H](CO)NC(=O)[C@H](CCCCN)NC(=O)[C@H](CC(N)=O)NC(=O)[C@H](Cc2c[nH]cn2)NC(=O)[C@@H](NC(=O)CNC(=O)CN)CSSC[C@@H](C(=O)O)NC(=O)[C@H](Cc2ccc(O)cc2)NC(=O)[C@H](Cc2c[nH]cn2)NC(=O)[C@H](Cc2ccc(O)cc2)NC(=O)[C@H](Cc2ccccc2)NC1=O` [Peptide 24] (H-GGCHNKSGLFYHYC-OH; disulfide 3-14), for which the EC50 in the assay on PD-L1 antibody (setting [2]) was found to be 1.3e-09 M; in the assay with PD-L1 antibody (setting [3]), 5.6e-10 M; in the assay on PD-L1 antibody (setting [4]), 2e-10 M. Moreover, the “pH 5.4: pH 7.2 EC 50 ratio” value in the assay with PD-L1 antibody was 6.6. Further, the “pH 6.0: pH 7.2 EC 50 ratio” value with PD-L1 antibody was 2.8.

Regarding `CC(C)C[C@H](NC(=O)[C@H](CCC(=O)O)NC(=O)[C@H](CCC(=O)O)NC(=O)[C@H](Cc1ccc(O)cc1)NC(=O)[C@H](Cc1ccccc1)NC(=O)[C@H](Cc1ccc(O)cc1)NC(=O)[C@H](CC(C)C)NC(=O)[C@@H]1CCCN1C(=O)[C@H](CO)NC(=O)[C@@H](NC(=O)[C@@H](N)CCC(N)=O)C(C)C)C(=O)N[C@@H](C)C(=O)O` [Peptide 27], in the assay on PD-L1 antibody (setting [3]), the EC50 worked out at 9e-10 M.

As to `CC[C@H](C)[C@@H]1NC(=O)[C@H](CC(=O)O)NC(=O)[C@H](C(C)C)NC(=O)[C@H](CCC(N)=O)NC(=O)[C@@H]2CCCN2C(=O)[C@H](CCC(=O)O)NC(=O)[C@H](Cc2ccc(O)cc2)NC(=O)[C@H](Cc2ccccc2)NC(=O)[C@H]([C@@H](C)O)NC(=O)[C@H](CO)NC(=O)[C@@H](NC(=O)[C@H](CC(C)C)NC(=O)CNC(=O)CN)CSSC[C@@H](C(=O)N[C@@H](Cc2ccc(O)cc2)C(=O)O)NC1=O` [Peptide 29] (H-GGLCSTFYEPQVDICY-OH; disulfide 4-15), the EC50 with PD-L1 antibody (setting [2]) was 1.5e-09 M; with PD-L1 antibody (setting [3]), 4.9e-10 M; in the assay on PD-L1 antibody (setting [4]) it was 2.3e-10 M. For the same compound, the “pH 5.4: pH 7.2 EC 50 ratio” value in the assay with PD-L1 antibody is given as 6.5. In addition, the “pH 6.0: pH 7.2 EC 50 ratio” value with PD-L1 antibody amounted to 2.1.

Take `CC(C)[C@@H]1NC(=O)[C@@H](NC(=O)CNC(=O)CN)CSSC[C@@H](C(=O)O)NC(=O)[C@H](CC(=O)O)NC(=O)[C@@H]2CCCN2C(=O)[C@H](CCCNC(=N)N)NC(=O)[C@H](CCC(N)=O)NC(=O)[C@H](Cc2c[nH]cn2)NC(=O)[C@H](Cc2c[nH]cn2)NC(=O)[C@H](Cc2ccccc2)NC(=O)[C@H](Cc2ccccc2)NC(=O)[C@H](Cc2c[nH]cn2)NC1=O` [Peptide 31]: the EC50 in the assay on PD-L1 antibody (setting [2]) turned out to be 1.5e-09 M; in the assay on PD-L1 antibody (setting [3]), 3.6e-10 M.

With “GGADCLLHDWDSACQI [Peptide 10, control in the PD-L1 antibody test]”, the pH responsiveness result in assay [1] is reported as “significant pH responsiveness”. The “EC50 [M] pH 7.2” value in the assay on PD-L1 antibody (pH 7.2) is “Inactive”.

Consider GGCFEEHEQLVFQTHC [Peptide 5], for which, in assay [1], the pH responsiveness entry was “significant pH responsiveness”.

Consider GGCILPGQHESQAIAC [Peptide 6], for which the pH responsiveness result in assay [1] was “significant pH responsiveness”.
